The subject of series [1] is TNF-α, IL-6, IL-1b, and COX-2. As to the kind of experiment: Anti-inflammatory effect, Propionibacterium acnes-induced inflammatory cytokine mRNA by RT-PCR. Format: cell-based. As to conditions: keratinocyte, 50 μg/ml Propionibacterium acnes, 50 μM, 24 hours. As for the experimental part:
Anti-inflammatory effects of the compounds of the present disclosure were examined using Propionibacterium acnes. To this end, keratinocyte was seeded in a 6-well plate at a density of 300,000 cells per well, and then incubated in a DMEM culture medium (Gibco, USA) containing 10% FBS for 24 hours under conditions of 37° C. and 5% CO2. After replacing the medium by a fresh medium, the cells were treated with 50 μg/ml of Propionibacterium acnes, and then the treated Propionibacterium acnes was treated with each 50 μM of the compound 1 and the compound 3 of the present disclosure and salicylic acid used as the positive control, followed by incubation for 24 hours under the same conditions as above. RNA was isolated from the cells, and cDNA was synthesized using a cDNA synthesis kit (Intron, Korea). PCR premix (Intron, Korea) and primers for each of TNF-α, IL-6, IL-1b, and COX-2 in Table 3 below were used to perform PCR. mRNA levels of TNF-α, IL-6, IL-1 b and COX-2 were determined by 5% agarose gel electrophoresis.

Series [2] in a line: Test of solubility in water. Format: physicochemical. As to conditions: distilled water, concentration of 10 mg/ml.
In series [3] the test system is HaCaT keratinocyte cell line. The series can be described thus: Keratinocyte growth, sulforhodamine B colorimetric assay. Format: cell-based. As to conditions: 50 μM, 72 hours, SRB, absorbance 560 nm. The method, then:
(Cancer Res. 48:4266(1988)) […] The cultured cell line was detached from the bottom of the culture plate using a 1% trypsin solution, and only cell precipitate was collected by centrifugation. The cell precipitate was suspended in DMEM without FBS, and then cultured for 24 hours under conditions of 37° C. and 5% CO2. 24 hours later, the medium was replaced by the same medium from which serum was completely removed. A blank sample in which the cell precipitate was dissolved sterile in 10% DMSO was prepared for standardization. Each of the compound 1 to the compound 4 (50 μM) of the present disclosure, salicylic acid (50 μM), and EGF (100 nM) as a positive control were treated. Incubation was carried out under the same conditions as above for 72 hours. After completing the incubation, each culture supernatant was removed and cells were fixed with ethanol and washed with phosphate buffer saline (PBS) three times. After removing the washing solution, the cells were treated with a colorimetric SRB solution, and then sufficiently washed with 1% acetic acid. The cells were observed under a microscope to examine living cells. Absorbance at UV 560 nm was measured to determine cell viability.

Series [4] has as its system collagen, elastin, and fibronectin. As to the kind of experiment: Extracellular matrix mRNA expression by RT-PCR. Format: cell-based. As to conditions: NIH3T3 fibroblast, 50 μM, 72 hours, as compared with salicylic acid. The method, then:
(§1) Effects of the compounds of the present disclosure on extracellular matrix expression were examined using NIH3T3 fibroblast. To this end, NIH3T3 fibroblast was seeded in a 6-well plate at a density of 300,000 cells per well, and then incubated in a DMEM culture medium (Gibco, USA) containing 10% FBS for 24 hours under conditions of 37° C. and 5% CO2. The cultured cell line was detached from the bottom of the culture plate using a 1% trypsin solution, and a cell precipitate was collected by centrifugation. The cell precipitate was suspended in DMEM without FBS, and then cultured for 24 hours under conditions of 37° C. and 5% CO2. 24 hours later, the medium was replaced by the same medium from which serum was completely removed. A blank sample in which the cell precipitate was dissolved sterile in 10% DMSO was prepared for standardization. Each of the compound 1 and the compound 3 of the present disclosure, and salicylic acid as a positive control were treated at a concentration of 50 μM. Incubation was carried out under the same conditions as above for 72 hours. […]
Meanwhile, RNA was isolated from the cells treated in the same manner as the above experiment, and then cDNA was synthesized using a cDNA synthesis kit (Intron, Korea). […] Thereafter, mRNA levels of collagen, elastin, and fibronectin were determined by 5% agarose gel electrophoresis.

Series [5] concerns Propionibacterium acnes. As to the kind of experiment: Antibacterial effect, paper disc clear zone on agar plate. As to conditions: paper discs soaked with 200 mM, 3 days. Format: cell-based. As for the experimental part:
Antibacterial effects of the compounds synthesized in Example <1-2> were examined using Propionibacterium acnes. To this end, Propionibacterium acnes was first cultured on an agar plate. Paper discs were soaked with each 200 mM of the compound 1 to the compound 4 synthesized in Example <1-2> and salicylic acid, and then the paper disc soaked with the sample was placed on the agar plate on which Propionibacterium acnes had been cultured, followed by incubation. 3 days later, the size of a clear zone with no microbial growth was measured to determine the antibacterial effect of each compound.

For series [6], the system named is collagen, elastin, and fibronectin. As to the kind of experiment: Extracellular matrix protein expression by immunocytostaining. Format: cell-based. As to conditions: NIH3T3 fibroblast, 50 μM, 72 hours, as compared with salicylic acid. As for the experimental part: as §1, with “hours. Thereafter, to examine collagen, elastin, and fibronectin expression by immunocytostaining, cells were fixed with 4% paraformaldehyde, permeated with 0.5% Triton X-100, and blocked with 3% BSA.” for “hours.”

Consider two compounds from patent publication US10874709B2, “Conjugate of salicylic acid and peptide” (CAREGEN CO., LTD., priority 2017, dated 2020).

Ends that are not written are not given here.

Consider `O=C(O)c1ccccc1O` [salicylic acid, 2-hydroxybenzoic acid], for which, in series [1], the “expression of inflammatory cytokines induced by Propionibacterium acnes” value is listed as “hardly inhibited”. For the same compound, the solubility in water result in series [2] is recorded as “hardly dissolved in water”. For the same compound, the growth of keratinocytes result in series [3] was “inhibited growth of keratinocytes due to toxicity”.

Take “compound 3: salicylic acid linked via covalent bond to peptide of SEQ ID NO: 3 (KLKKTETQ) (also: salicylic acid linked via covalent bond)”: the “expression of inflammatory cytokines induced by Propionibacterium acnes” value in series [1] is recorded as “remarkably reduced”. Further, in series [4], the “mRNA expression levels of collagen, elastin, and fibronectin” value was “remarkably increased”. Also, the “antibacterial effect (size of clear zone)” value in series [5] is listed as “remarkably increased antibacterial effects”. In series [6], the “protein expression levels of collagen, elastin, and fibronectin” value is reported as “remarkably increased”.
